{
  "source": "paper PMC4992173",
  "about": "“Divergent synthesis and identification of the cellular targets of deoxyelephantopins” (Nature Communications, 2016)",
  "key": {"[1]": {"biological_target": "T1, Protein HGH1 homolog (HGH1) (Homo sapiens, UniProt Q9BTY7)", "T1 construct": "1,522 proteins were enriched from MCF7 cells by 10 μM probe 24c; endogenous in cells; host or cells: MCF7", "T1 sequence (Q9BTY7 whole entry)": "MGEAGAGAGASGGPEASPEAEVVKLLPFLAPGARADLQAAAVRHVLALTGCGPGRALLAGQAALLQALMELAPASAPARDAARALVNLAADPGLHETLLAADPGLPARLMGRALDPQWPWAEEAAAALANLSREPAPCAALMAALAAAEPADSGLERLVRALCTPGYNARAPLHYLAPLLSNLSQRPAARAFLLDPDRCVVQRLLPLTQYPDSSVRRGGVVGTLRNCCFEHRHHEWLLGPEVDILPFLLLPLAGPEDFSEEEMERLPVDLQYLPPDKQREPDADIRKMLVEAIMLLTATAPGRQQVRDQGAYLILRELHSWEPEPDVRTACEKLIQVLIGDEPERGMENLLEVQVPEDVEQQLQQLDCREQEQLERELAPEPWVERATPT", "assay": "SILAC competitive profiling with probe 24c in MCF7 lysates: HGH1", "type": "binding", "settings": "1 h, then 10 µM 24c", "from_the_text": "In our efforts to determine the direct molecular targets of deoxyelephantopin we first performed a gel-based competitive in situ proteomic profiling assay[41] […] While the greater conformational flexibility of probe 24c could potentially lead to more promiscuous target engagement relatively to deoxyelephantopin, it was favoured based on the fact that an alkyne moiety appended to the rigid scaffold of deoxyelephantopin may hinder some of its interactions. MCF7 cells were pretreated with various concentrations of deoxyelephantopin for 4 h, harvested, lysed and the lysates were treated with the fluorogenic probe 24c-Cy3 (10 μM; Supplementary Fig. 10). […] Furthermore, cells were pretreated with 20 μM concentration of deoxyelephantopin or 24c and the proteomic profiles were compared (Fig. 6b, Supplementary Fig. 11). Multiple bands were detected that were equally competed by both DEP and 24c, thus again confirming that 24c can be used as an acceptable clickable analogue of deoxyelephantopin in pulldown assays. Having established the optimal labelling conditions by SDS–PAGE, we next carried out a mass spectrometry-based competitive profiling assay[42] coupled with the method of stable isotope labelling of amino acids in culture (SILAC)[43]. […]\nvisualization were performed as described above. Images were quantified with ImageJ and kinetics values were calculated using GraphPad Prism (V6.03). […]"}, "[2]": {"system": "PPARγ", "settings": "cited from earlier work"}},
  "data": [
    {"smiles": "C=C(C)C(=O)O[C@H]1CC2=C[C@@H](C/C(C)=C/[C@H]3OC(=O)C(=C)[C@H]13)OC2=O", "note": "[deoxyelephantopin]", "values": [
      {"measurement": "SILAC ratio 20 µM Deoxyelephantopin/DMSO with 24c", "setting": "[1]", "result": 0.20},
      {"measurement": "action on PPARγ (SPR)", "setting": "[2]", "result": "partial agonist"}
    ]}
  ]
}
